Measured values published in ChEMBL document CHEMBL1147772, “The identification of potent and selective imidazole-based inhibitors of B-Raf kinase” (Bioorg Med Chem Lett, 2006).

Columns and labels:
[1] = molecular target: T1, Serine/threonine-protein kinase B-raf (Homo sapiens, UniProt P15056)
Description: Binding affinity at bRaf kinase in fluorescent ligand displacement assay

[2] = molecular target: Rho-associated protein kinase 2 (Homo sapiens) (UniProt O75116); assay: Inhibition of ROCK2 activity at 10 uM
[3] = molecular target: Mitogen-activated protein kinase 8 (Homo sapiens) (UniProt P45983); assay: Inhibition of JNK1 activity at 10 uM
[4] = molecular target: Mitogen-activated protein kinase 13 (Homo sapiens) (UniProt O15264); assay: Inhibition of p38delta MAPK activity at 10 uM
[5] = molecular target: Ribosomal protein S6 kinase (P70S6K) (Homo sapiens) (UniProt Q9UBS0+P23443); assay: Inhibition of p70S6K activity at 10 uM; format: protein-complex assay
[6] = molecular target: Phosphorylase kinase (Homo sapiens) (UniProt P15735+P46020+P46019+Q93100+Q16816); assay: Inhibition of phosphorylase kinase activity at 10 uM; format: protein-complex assay
[7] = molecular target: Dual specificity mitogen-activated protein kinase kinase 1 (Homo sapiens) (UniProt Q02750); assay: Inhibition of MEK1 activity at 10 uM
[8] = molecular target: AMP-activated protein kinase, AMPK (Homo sapiens) (UniProt P54646+O43741+P54619+Q9UGJ0+Q9Y478+Q13131+Q9UGI9); assay: Inhibition of AMPK activity at 10 uM; format: protein-complex assay
[9] = molecular target: Casein kinase II (Homo sapiens) (UniProt P67870+P68400+P19784); assay: Inhibition of CK2 activity at 10 uM; format: protein-complex assay
[10] = molecular target: cAMP-dependent protein kinase (PKA) (Homo sapiens) (UniProt P22694+P17612+P22612); assay: Inhibition of PKA activity at 10 uM; format: protein assay
[11] = molecular target: Mitogen-activated protein kinase 11 (Homo sapiens) (UniProt Q15759); assay: Inhibition of p38-beta MAPK activity at 10 uM
[12] = molecular target: Mitogen-activated protein kinase 12 (Homo sapiens) (UniProt P53778); assay: Inhibition of p38-gamma MAPK activity at 10 uM
[13] = molecular target: RAC-alpha serine/threonine-protein kinase (Homo sapiens) (UniProt P31749); assay: Inhibition of PKBalpha activity at 10 uM
[14] = molecular target: Ribosomal protein S6 kinase alpha-5 (Homo sapiens) (UniProt O75582); assay: Inhibition of MSK1 activity at 10 uM
[15] = molecular target: Glycogen synthase kinase-3 beta (Homo sapiens) (UniProt P49841); assay: Inhibition of GSK3-beta activity at 10 uM
[16] = molecular target: MAP kinase-activated protein kinase 5 (Homo sapiens) (UniProt Q8IW41); assay: Inhibition of PRAK activity at 10 uM
[17] = molecular target: Protein kinase C alpha type (Homo sapiens) (UniProt P17252); assay: Inhibition of PKCalpha activity at 10 uM
[18] = molecular target: Mitogen-activated protein kinase 1 (Homo sapiens) (UniProt P28482); assay: Inhibition of MAPK2 activity at 10 uM
[19] = molecular target: Tyrosine-protein kinase Lck (Homo sapiens) (UniProt P06239); assay: Inhibition of Lck activity at 10 uM
[20] = molecular target: MAP kinase-activated protein kinase 2 (Homo sapiens) (UniProt P49137); assay: Inhibition of MAPKAPK2 activity at 10 uM
[21] = molecular target: Serine/threonine-protein kinase Sgk1 (Homo sapiens) (UniProt O00141); assay: Inhibition of SGK activity at 10 uM
[22] = molecular target: Serine/threonine-protein kinase Chk1 (Homo sapiens) (UniProt O14757); assay: Inhibition of CHK1 activity at 10 uM
[23] = molecular target: T1, Serine/threonine-protein kinase B-raf; remark: listed apart in the source
Description: Inhibition bRaf kinase activity

T1 sequence (P15056 whole entry): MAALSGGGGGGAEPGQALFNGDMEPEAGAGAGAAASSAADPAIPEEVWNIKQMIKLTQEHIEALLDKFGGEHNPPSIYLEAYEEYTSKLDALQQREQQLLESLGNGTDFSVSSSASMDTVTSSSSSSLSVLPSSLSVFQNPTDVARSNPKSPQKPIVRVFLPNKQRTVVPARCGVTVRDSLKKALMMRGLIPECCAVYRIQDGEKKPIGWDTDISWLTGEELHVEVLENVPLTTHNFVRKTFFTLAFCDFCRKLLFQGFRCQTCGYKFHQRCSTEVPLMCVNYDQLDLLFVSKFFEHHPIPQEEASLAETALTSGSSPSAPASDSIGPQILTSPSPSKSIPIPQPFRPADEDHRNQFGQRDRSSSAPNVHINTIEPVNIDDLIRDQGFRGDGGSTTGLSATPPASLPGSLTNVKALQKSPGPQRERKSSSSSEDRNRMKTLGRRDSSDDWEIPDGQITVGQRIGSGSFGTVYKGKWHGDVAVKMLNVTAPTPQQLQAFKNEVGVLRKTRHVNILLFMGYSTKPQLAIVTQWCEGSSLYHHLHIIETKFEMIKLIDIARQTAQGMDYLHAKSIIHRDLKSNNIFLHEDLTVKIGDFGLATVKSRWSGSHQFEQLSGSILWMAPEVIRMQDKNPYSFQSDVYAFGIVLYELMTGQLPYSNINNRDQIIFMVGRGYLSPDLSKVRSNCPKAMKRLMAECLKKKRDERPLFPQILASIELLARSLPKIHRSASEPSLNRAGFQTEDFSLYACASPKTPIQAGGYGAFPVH
Sequence of Rho-associated protein kinase 2 (Homo sapiens) (O75116 whole entry, looked up): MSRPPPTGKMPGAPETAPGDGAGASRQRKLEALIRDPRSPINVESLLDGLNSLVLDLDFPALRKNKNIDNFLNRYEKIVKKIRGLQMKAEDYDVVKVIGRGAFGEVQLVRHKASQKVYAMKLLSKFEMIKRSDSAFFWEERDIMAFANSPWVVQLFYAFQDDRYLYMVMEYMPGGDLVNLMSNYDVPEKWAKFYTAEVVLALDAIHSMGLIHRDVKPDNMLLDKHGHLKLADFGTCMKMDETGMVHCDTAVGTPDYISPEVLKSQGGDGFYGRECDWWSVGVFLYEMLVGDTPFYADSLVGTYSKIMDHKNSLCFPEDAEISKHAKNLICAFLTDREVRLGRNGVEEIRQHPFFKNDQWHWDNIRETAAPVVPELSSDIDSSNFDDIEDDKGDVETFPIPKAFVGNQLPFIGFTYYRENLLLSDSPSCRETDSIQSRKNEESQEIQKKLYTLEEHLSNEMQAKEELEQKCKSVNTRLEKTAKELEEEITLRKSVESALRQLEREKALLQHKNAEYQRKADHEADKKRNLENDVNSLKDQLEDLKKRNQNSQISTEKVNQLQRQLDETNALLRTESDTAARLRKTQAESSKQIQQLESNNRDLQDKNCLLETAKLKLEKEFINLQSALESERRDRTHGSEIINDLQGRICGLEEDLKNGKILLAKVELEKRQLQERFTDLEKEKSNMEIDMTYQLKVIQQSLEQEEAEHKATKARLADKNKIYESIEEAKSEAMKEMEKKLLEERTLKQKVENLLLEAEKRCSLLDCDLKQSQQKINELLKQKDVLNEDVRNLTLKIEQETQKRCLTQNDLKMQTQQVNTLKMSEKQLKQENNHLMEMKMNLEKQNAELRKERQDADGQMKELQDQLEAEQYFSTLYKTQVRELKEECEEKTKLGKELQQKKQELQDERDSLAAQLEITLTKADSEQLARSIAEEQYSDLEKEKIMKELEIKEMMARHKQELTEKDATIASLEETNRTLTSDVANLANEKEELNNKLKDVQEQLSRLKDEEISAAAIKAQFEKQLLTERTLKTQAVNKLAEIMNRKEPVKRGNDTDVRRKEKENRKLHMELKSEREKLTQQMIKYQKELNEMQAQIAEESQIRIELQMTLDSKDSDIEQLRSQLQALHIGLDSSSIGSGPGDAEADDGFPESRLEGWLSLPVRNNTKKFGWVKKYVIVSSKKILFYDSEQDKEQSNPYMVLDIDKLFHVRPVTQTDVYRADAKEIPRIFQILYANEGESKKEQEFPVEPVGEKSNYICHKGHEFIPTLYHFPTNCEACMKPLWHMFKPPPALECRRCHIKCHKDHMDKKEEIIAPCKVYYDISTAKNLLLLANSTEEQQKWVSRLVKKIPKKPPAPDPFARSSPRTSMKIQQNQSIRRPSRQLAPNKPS
Sequence of Tyrosine-protein kinase Lck (Homo sapiens) (P06239 2-509 limits assumed): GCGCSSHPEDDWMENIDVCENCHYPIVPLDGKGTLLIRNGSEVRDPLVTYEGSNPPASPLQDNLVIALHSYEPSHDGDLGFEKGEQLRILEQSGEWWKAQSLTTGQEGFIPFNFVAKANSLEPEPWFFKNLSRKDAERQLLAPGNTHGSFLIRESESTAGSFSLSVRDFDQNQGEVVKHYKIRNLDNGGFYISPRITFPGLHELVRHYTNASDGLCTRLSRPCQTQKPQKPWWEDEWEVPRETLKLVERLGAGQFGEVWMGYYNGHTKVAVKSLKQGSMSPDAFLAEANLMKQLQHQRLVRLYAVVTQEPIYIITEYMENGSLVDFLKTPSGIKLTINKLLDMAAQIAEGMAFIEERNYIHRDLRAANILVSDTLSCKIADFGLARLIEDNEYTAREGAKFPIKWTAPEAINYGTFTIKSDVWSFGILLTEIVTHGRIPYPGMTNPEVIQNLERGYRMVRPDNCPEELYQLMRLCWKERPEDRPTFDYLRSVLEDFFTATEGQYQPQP
Sequence of MAP kinase-activated protein kinase 2 (Homo sapiens) (P49137 whole entry, looked up): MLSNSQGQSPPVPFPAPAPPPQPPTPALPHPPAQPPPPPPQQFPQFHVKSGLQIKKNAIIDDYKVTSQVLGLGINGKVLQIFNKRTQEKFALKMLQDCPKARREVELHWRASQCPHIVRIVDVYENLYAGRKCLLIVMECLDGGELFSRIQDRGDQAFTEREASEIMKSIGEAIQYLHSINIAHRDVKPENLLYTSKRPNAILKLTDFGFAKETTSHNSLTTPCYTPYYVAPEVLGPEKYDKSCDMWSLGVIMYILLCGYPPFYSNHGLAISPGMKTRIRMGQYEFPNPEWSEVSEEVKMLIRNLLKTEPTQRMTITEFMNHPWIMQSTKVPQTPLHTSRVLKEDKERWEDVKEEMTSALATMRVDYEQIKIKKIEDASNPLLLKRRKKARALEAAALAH
Sequence of Mitogen-activated protein kinase 12 (Homo sapiens) (P53778 whole entry): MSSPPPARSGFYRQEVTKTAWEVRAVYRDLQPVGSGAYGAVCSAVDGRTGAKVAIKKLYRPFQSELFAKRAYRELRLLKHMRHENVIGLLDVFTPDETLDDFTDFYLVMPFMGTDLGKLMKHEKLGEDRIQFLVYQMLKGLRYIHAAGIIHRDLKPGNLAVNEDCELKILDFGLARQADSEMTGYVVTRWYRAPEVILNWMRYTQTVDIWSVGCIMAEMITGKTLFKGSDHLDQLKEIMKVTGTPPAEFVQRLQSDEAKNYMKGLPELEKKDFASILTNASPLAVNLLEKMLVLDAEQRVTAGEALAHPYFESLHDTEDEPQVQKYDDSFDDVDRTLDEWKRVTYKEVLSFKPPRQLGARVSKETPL
Sequence of RAC-alpha serine/threonine-protein kinase (Homo sapiens) (P31749 whole entry): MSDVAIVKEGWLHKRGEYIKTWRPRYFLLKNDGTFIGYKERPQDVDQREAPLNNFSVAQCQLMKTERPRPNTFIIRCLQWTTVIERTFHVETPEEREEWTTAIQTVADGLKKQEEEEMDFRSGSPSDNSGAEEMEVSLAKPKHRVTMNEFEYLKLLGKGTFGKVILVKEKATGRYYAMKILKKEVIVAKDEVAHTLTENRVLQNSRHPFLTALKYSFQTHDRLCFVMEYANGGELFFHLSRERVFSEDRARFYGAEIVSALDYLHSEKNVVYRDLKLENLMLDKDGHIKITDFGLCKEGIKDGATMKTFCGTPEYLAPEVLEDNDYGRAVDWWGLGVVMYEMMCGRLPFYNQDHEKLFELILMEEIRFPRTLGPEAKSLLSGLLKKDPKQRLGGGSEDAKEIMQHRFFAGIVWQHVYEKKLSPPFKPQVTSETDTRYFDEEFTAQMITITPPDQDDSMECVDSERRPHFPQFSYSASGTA
Sequence of Glycogen synthase kinase-3 beta (Homo sapiens) (P49841 whole entry, looked up): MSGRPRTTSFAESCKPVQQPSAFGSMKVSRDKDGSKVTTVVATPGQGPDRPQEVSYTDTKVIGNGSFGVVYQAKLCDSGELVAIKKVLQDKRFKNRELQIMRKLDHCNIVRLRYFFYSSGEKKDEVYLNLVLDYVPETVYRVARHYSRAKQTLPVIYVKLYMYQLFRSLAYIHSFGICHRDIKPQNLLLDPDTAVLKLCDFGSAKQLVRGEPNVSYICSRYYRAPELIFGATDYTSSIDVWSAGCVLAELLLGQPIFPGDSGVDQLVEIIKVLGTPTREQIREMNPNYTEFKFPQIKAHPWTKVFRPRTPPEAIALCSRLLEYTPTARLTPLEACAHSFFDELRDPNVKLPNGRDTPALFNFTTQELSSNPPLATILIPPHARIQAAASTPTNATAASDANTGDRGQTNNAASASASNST
Sequence of Mitogen-activated protein kinase 8 (Homo sapiens) (P45983 whole entry): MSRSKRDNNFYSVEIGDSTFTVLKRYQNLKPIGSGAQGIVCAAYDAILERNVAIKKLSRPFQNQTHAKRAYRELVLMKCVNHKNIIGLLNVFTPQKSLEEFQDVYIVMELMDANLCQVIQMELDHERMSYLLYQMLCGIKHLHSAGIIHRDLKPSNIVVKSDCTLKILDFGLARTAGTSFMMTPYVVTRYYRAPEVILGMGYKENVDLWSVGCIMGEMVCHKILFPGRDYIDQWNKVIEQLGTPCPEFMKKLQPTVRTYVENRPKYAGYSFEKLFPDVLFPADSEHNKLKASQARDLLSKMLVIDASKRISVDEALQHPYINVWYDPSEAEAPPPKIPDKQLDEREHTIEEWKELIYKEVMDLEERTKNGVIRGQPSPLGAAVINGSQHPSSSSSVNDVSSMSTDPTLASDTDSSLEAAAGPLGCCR

Compound OCc1ccc(-c2[nH]c(-c3ccccc3)nc2-c2ccncc2)cc1Cl has a Kd [1] of 132 nM.
Work on OC1CCc2cc(-c3[nH]c(-c4ccccc4)nc3-c3ccncc3)ccc21 (stereo not given) yielded a Kd [1] of over 200 nM.
CN(C)CCOc1ccc(-c2nc(-c3ccncc3)c(-c3ccc4c(c3)CC/C4=N\O)[nH]2)cc1 was tested, and the inhibition [2] was 26%, the inhibition [3] was 19% and the inhibition [4] was 10%. The inhibition [5] was 13%, the inhibition [6] was 3% and the inhibition [7] was 14%. It also gave an inhibition [8] of 14%, an inhibition [9] of 8% and an inhibition [10] of -2%. The inhibition [11] was 9%, the inhibition [12] was 10% and the inhibition [13] was 8%. The inhibition [14] was 38%, the inhibition [15] was 25% and the inhibition [16] was 18%. It also gave an inhibition [17] of 10%, an inhibition [18] of 11% and an inhibition [19] of 39%. For the same compound, the inhibition [20] was 9%, the inhibition [21] was 17% and the inhibition [22] was 9%.
In the case of N=C(NO)c1ccc(-c2[nH]c(-c3ccccc3)nc2-c2ccncc2)cc1, the Kd [1] is reported as 53 nM.
In the case of CC(C)(CNS(C)(=O)=O)c1nc(-c2ccc(Cl)c(O)c2)c(-c2ccncc2)[nH]1, the Kd [1] is reported as 10 nM and the IC50 [23] is reported as 14 nM.
With Oc1cc(-c2[nH]c(-c3ccco3)nc2-c2ccncc2)ccc1Cl the Kd [1] was 4.2 nM and the IC50 [23] was 13 nM.
Compound O/N=C/c1ccc(-c2[nH]c(-c3ccccc3)nc2-c2ccncc2)cc1Cl has a Kd [1] of 6 nM.
CC(C)(C)c1nc(-c2ccncc2)c(-c2ccc(Cl)c(O)c2)[nH]1 was tested, and the Kd [1] was 2 nM and the IC50 [23] was 12 nM.
For Nc1nccc(-c2[nH]c(-c3ccccc3)nc2-c2ccc(Cl)c(O)c2)n1, the Kd [1] was 5.7 nM.
With OCc1cccc(-c2[nH]c(-c3ccccc3)nc2-c2ccncc2)c1 the Kd [1] was over 196 nM and the IC50 [23] was 1590 nM.
Work on Oc1cc(-c2[nH]c(-c3cccnc3)nc2-c2ccncc2)ccc1Cl yielded an IC50 [23] of 6 nM.
CC(C)(CNC(=O)Nc1ccc(Cl)cc1)c1nc(-c2ccc(Cl)c(O)c2)c(-c2ccncc2)[nH]1 showed a Kd [1] of 21 nM and an IC50 [23] of 13 nM.
For CC(C)(C)c1nc(-c2ccncc2)c(-c2ccc(F)cc2)[nH]1, the IC50 [23] was 900 nM.
CC(C)(CN)c1nc(-c2ccc(Cl)c(O)c2)c(-c2ccncc2)[nH]1 showed a Kd [1] of 4.8 nM and an IC50 [23] of 6 nM.
For Oc1cc(-c2[nH]c(-c3ccccc3)nc2-c2cccnc2)ccc1Cl, the Kd [1] was over 200 nM.
With Oc1cc(-c2[nH]cnc2-c2ccncc2)ccc1Cl the Kd [1] was 39 nM and the IC50 [23] was 33 nM.
With OCc1ccc(-c2[nH]c(-c3ccccc3)nc2-c2ccncc2)cc1O the Kd [1] was 22 nM.
Work on O/N=C/c1ccc(-c2[nH]c(-c3ccccc3)nc2-c2ccncc2)cc1 yielded a Kd [1] of 5 nM.
Oc1cc(-c2[nH]c(-c3ccccc3)nc2-c2ccncn2)ccc1Cl was tested, and the Kd [1] was 14 nM.
O/N=C1/CCCc2cc(-c3[nH]c(-c4ccccc4)nc3-c3ccncc3)ccc21 showed a Kd [1] of 17 nM.
Compound Oc1ccc(-c2nc(-c3ccccc3)[nH]c2-c2ccncc2)cc1 has a Kd [1] of 316 nM and an IC50 [23] of 339 nM.
OCc1ccc(-c2[nH]c(-c3ccccc3)nc2-c2ccncc2)cc1 showed a Kd [1] of 71 nM.
With Oc1cc(-c2[nH]c(-c3ccccc3)nc2-c2ccnnc2)ccc1Cl the Kd [1] was 87 nM.
For Oc1cc(-c2nc(-c3ccccc3)[nH]c2-c2ccncc2)ccc1Cl, the inhibition [2] was 3%, the inhibition [3] was 0% and the inhibition [5] was 26%. For the same compound, the inhibition [6] was 17%, the inhibition [7] was 5% and the inhibition [8] was 12%. The inhibition [9] was -3%, the inhibition [10] was 12% and the Kd [1] was 2.4 nM. For the same compound, the inhibition [11] was 81%, the inhibition [12] was 5% and the inhibition [13] was 44%. It also gave an inhibition [14] of 7%, an inhibition [15] of 83% and an inhibition [16] of 19%. For the same compound, the IC50 [23] was 10 nM, the inhibition [17] was 2% and the inhibition [18] was -3%. It also gave an inhibition [19] of 88%, an inhibition [20] of -1% and an inhibition [21] of 2%. For the same compound, the inhibition [22] was 1%.
Compound Oc1cccc(-c2nc(-c3ccccc3)[nH]c2-c2ccncc2)c1 has a Kd [1] of 8 nM.
Work on COc1cccc(-c2nc(-c3ccccc3)[nH]c2-c2ccncc2)c1 yielded a Kd [1] of over 196 nM.
Oc1cc(-c2[nH]c(-c3ccccc3)nc2-c2ccccc2)ccc1Cl was tested, and the Kd [1] was over 200 nM.
With C/C(=N\O)c1ccc(-c2[nH]c(-c3ccccc3)nc2-c2ccncc2)cc1 the Kd [1] was 11 nM.
Compound O/N=C/c1ccc(-c2[nH]c(-c3ccccc3)nc2-c2ccncc2)cc1O has a Kd [1] of 27 nM.
For CN(C)CCCNC(=O)c1nc(-c2ccncc2)c(-c2ccc(Cl)c(O)c2)[nH]1, the Kd [1] was 24 nM and the IC50 [23] was 40 nM.
